Laboratory results reported in article PMC6332446, “Acylphloroglucinol Derivatives from the South African Helichrysum niveum and Their Biological Activities” (Molecules, 2015).

Tests used:
[1] = Ferric-ion reducing antioxidant power (FRAP) assay; conditions: ascorbic acid equivalents; absorbance 593 nm; ± % STDEV
Description: Ferric-Ion Reducing Antioxidant Power (FRAP) Assay: Working FRAP reagent was prepared in accordance to the method described previously. Absorbance was measured at 593 nm. L-ascorbic acid was used as a standard and the results were expressed as μM ascorbic acid equivalents per milligram dry weight (μM AAE/g DW) of the test samples.

[2] = Trolox equivalent absorbance capacity (TEAC) assay; conditions: trolox equivalents; absorbance 734 nm, 25 °C
Description: Trolox Equivalent Absorbance Capacity (TEAC) Assay: The total antioxidant capacity of the test samples in terms of TEAC were measured using a previously described method. Absorbance was read at 734 nm at 25 °C in a plate reader and the results were expressed as μM trolox equivalents per milligram dry weight (μM TE/g DW) of the test samples.

[3] = Copper-initiated prooxidant activity in the ORAC assay; conditions: Cu2+ 18 μM without H2O2, 37 °C; one unit = 1% reduction of area under fluorescein decay curve
Description: (§1) Automated Oxygen Radicals Absorbance Capacity (ORAC) Assay: ORAC was measured according to the method previously described. The method measures the antioxidant scavenging capacity for (a) peroxyl radicals generated by thermal decomposition of 2,2ʹ-azobis ([…]) dihydrochloride (AAPH; ORACROO assay); (b) hydroxyl radical (ORACOH assay), generated by H2O2-Cu^2+ (H2O2, 0.3%; Cu^2+ [as CuSO4], 18 μM, or (c) Cu^2+ [as CuSO4], 18 μM as a transition metal oxidant at 37 °C. ORAC values were expressed as micromoles of trolox equivalents (TE) per milligram of test sample, except when Cu^2+ (without H2O2) was used as an oxidant in the assay. In the presence of Cu^2+ without H2O2, test samples acted as prooxidants rather than antioxidants in the ORAC assay. The copper-initiated prooxidant activity was calculated using [(AreaBlank − AreaSample)/AreaBlank] × 100 and expressed as prooxidant units; one unit equals the prooxidant activity that reduces the area under the fluorescein decay curve by 1% in the ORAC assay.

mushroom tyrosinase = assay: Tyrosinase enzyme assay; assay type: biochemical; conditions: L-Tyrosine substrate; samples screened at 100.00 μg/mL upper limit
Description: Tyrosinase Enzyme Assay: The tyrosinase inhibitory activity was measured using the spectrophotometric method previously described. Samples were dissolved in DMSO to a stock solution of 1 mg/mL, and further dilutions were then done with 50 mM sodium phosphate buffer (pH 6.5) for all working solutions. […] In the wells of a 96-well plate, 70 µL of each sample working solution was combined with 30 μL of tyrosinase (500 Units/mL in sodium phosphate buffer) in triplicate. After incubation at room temperature for 5 min, 110 μL of substrate (2 mM L-Tyrosine) was added to each well. Final concentrations of the crude extract, isolated compounds, and positive control ranged from 1.0–100 μg/mL. Incubation commenced for 30 min at room temperature and the enzyme activity was determined by measuring the absorbance at 490 nm. The percentage of tyrosinase inhibition was calculated as follows: Tyrosinase inhibition (%) = [(A − B) − (C − D)]/(A − B) × 100 (1) where A is the absorbance of the control with the enzyme, B is the absorbance of the control without the enzyme, C is the absorbance of the test sample with the enzyme and D is the absorbance of the test sample without the enzyme.

[4] = ORAC assay, hydroxyl radical absorbance capacity (ORACOH); conditions: trolox equivalents; H2O2 0.3%, Cu2+ 18 μM, 37 °C; ± % STDEV
Description: as §1

[5] = biological target: T1, elastase from porcine pancrease (Sus scrofa, UniProt P00772); assay: biochemical; conditions: SANA substrate; samples screened at 100.00 μg/mL upper limit; read-out: Inhibitory Activities IC50, Elastase (converted)
T1 construct: from tissue; host or cells: porcine pancreas
T1 sequence (P00772 27-266): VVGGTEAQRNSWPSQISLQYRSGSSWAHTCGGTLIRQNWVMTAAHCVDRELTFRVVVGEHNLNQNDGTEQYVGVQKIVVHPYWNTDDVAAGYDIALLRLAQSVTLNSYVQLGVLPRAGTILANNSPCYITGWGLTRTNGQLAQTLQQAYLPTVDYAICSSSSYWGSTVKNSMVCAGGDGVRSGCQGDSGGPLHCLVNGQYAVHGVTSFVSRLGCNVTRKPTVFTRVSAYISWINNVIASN
Description: Elastase Inhibition Assay: Inhibition of elastase by the test samples was assayed using N-succyl-(Ala)-3-nitroanilide (SANA) as the substrate, monitoring the release of p-nitroanilide by the method described previously. The inhibitory activity determined the intensity of color released during cleavage of SANA by the action of elastase. Briefly, 1 mM SANA was prepared in 0.1 M Tris-HCl buffer pH 8.0 and 200 μL of this solution was added to the 20 μL of sample solution in a 96-Well plate. The mixtures were vortexed and preincubated for 10 min at 25 °C and then 20 μL of elastase from porcine pancrease (0.03 Units/mL) was added. The mixtures were further incubated for 10 min and the absorbance was measured at 410 nm. Methanol was used as control, while oleanolic acid used as a positive control.

[6] = ORAC assay, peroxyl radical absorbance capacity (ORACROO); conditions: trolox equivalents; AAPH, 37 °C; ± % STDEV
Description: as §1

Rat liver microsomes = conditions: Fe2+-induced, TBARs, samples screened at 50.00 μg/mL, ± STDEV
[7] = biological target: Acetylcholinesterase (AChE) (Homo sapiens, UniProt P22303); assay: biochemical; conditions: 500.00 μg/mL upper concentration limit; read-out: Inhibitory Activities IC50, Acetylcholinesterase (converted)
Chain of Acetylcholinesterase (AChE) (P22303 32-614, species assumed): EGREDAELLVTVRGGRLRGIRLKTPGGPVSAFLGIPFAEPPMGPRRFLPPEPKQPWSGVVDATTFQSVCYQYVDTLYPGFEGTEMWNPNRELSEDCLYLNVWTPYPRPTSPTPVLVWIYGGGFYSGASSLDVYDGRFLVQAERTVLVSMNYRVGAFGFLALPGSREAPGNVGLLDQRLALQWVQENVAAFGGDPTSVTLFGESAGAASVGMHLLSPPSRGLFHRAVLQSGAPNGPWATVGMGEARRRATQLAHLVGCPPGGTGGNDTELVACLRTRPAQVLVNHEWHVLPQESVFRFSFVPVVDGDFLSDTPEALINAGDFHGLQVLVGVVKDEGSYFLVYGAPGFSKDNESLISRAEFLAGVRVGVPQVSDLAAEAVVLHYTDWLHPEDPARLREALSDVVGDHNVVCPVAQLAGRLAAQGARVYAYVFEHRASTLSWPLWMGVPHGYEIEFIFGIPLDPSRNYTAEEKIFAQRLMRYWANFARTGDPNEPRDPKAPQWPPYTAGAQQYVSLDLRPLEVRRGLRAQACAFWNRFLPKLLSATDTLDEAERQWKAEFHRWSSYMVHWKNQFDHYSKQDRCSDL
Description: Acetylcholinesterase Inhibition Assay: Acetylcholinesterase (AChE) inhibitory activity was measured using Ellman’s method as previously described with minor modifications. AChE catalysis the hydrolysis of acetythiocholine iodide (ACTI as substrate) to thiocholine, which can then react with Ellman’s reagent (DTNB) to produce 5-thio-2-nitrobenzoate (yellow color). In the presence of samples (inhibitors), the release of 5-thio-2-nitrobenzoate (yellow color) is reduced and it is monitored by measuring the absorbance at 450 nm.
In a 96-Well plate, the reaction mixture contains 50 µL of samples pre-incubated with 125 µL of 3 mM 5,5ʹ-Dithiobis-(2-nitrobenzoic acid), and 25 µL AChE (2.0 U/mL), in 50 mM tris-HCl buffer (pH 8.0), with 0.1% bovine serum albumin (BSA) for 15 minutes at 25 °C. Subsequently, 25 µL (15 mM) ACTI was added to the incubation mixture and further incubated for 10 min at 25 °C. […] Absorbance was recorded at 450 nm. The percent AChE inhibitory activity is given by: [A0 − (B − C)]/A0 × 100 (3) where A0 = full enzymatic reaction; B = Activity in the presence of sample; and C = Activity without sample.

SMILES: CC1(C)CC[C@]2(C)CC=C3[C@](C)(CCC4[C@@]5(C)CC[C@H](O)[C@](C)(CO)C5CC[C@@]34C)C2C1 (stereo partly drawn) [Compound 11, 3β-24-dihydroxyterexer-14-ene]
- FRAP [1]: 197.99 ± 3.90 µMAAE/g
- TEAC [2]: 1323.61 ± 1.76 μM TE/g DW
- Prooxidant (copper-initiated prooxidant activity) [3]: 31.38 ± 7.00 prooxidant units
- Inhibitory Activities IC50, Tyrosinase (mushroom tyrosinase): >100.00 µg/mL
- Hydroxyl (ORACOH) [4]: 0.89 ± 7.34 × 10^6 µMTE/g
- IC50 [5]: > 226 µM
- Peroxyl (ORAC peroxyl radical absorbance capacity) [6]: 1193.10 ± 1.68 µM TE/g
- Anti-Lipid peroxidation IC50 (Rat liver microsomes): >50.00 µg/mL
- IC50 [7]: 707 µM
